Data published in ChEMBL document CHEMBL5223084, “Discovery and Preclinical Characterization of Usmarapride (SUVN-D4010): A Potent, Selective 5-HT4 Receptor Partial Agonist for the Treatment of Cognitive Deficits Associated with Alzheimer's Disease” (J Med Chem, 2021).

Key:
[1] = rat, in vivo, po, 3 mg/kg, 24 h
[2] = rat, in vivo, po, 3 mg/kg, 24 h; remark: listed apart in the source
[3] = rat, in vivo, po, 3 mg/kg, 24 h; remark: listed apart in the source
in vivo [4] = conditions: Wistar, rat, po, 3 mg/kg
in vivo [5] = conditions: Wistar, rat, po, 3 mg/kg; remark: listed apart in the source
in vivo [6] = conditions: Wistar, rat, brain and plasma, po, 10 mg/kg
in vitro [7] = conditions: rat
in vitro [8] = conditions: human
[9] = Solubility of the compound in water; format: physicochemical
[10] = Solubility of the compound in buffer at pH 2 to 7 at 37 degC; format: physicochemical
[11] = Apparent permeability of the compound in human Caco-2 cells at 10 uM; format: ADME, cell-based
[12] = Tmax in Beagle dog at 1 mg/kg, po; format: ADME, organism-based, Canis lupus familiaris; conditions: in vivo
[13] = AUC (0 to 24 hrs) in Beagle dog at 1 mg/kg, po; format: ADME, organism-based, Canis lupus familiaris; parameters: dose 1 mg/kg, route po; conditions: in vivo
[14] = Terminal half life in Beagle dog at 1 mg/kg, iv; format: ADME, organism-based, Canis lupus familiaris; conditions: in vivo, read-out: beta t1/2 (converted)
[15] = Clearance in Beagle dog at 1 mg/kg, iv; format: ADME, organism-based, Canis lupus familiaris; conditions: in vivo
[16] = Volume of distribution in Beagle dog at 1 mg/kg, iv; format: ADME, organism-based, Canis lupus familiaris; conditions: in vivo
[17] = Oral bioavailability in Beagle dog at 1 mg/kg; format: ADME, organism-based, Canis lupus familiaris; conditions: in vivo
[18] = Acid dissociation constant, pKa of the compound; format: physicochemical
in vivo [19] = conditions: Wistar, rat, po, 3 mg/kg; remark: listed apart in the source
in vivo [20] = conditions: Wistar, rat, po, 3 mg/kg; remark: listed apart in the source
in vivo [21] = conditions: Wistar, rat, iv, 1 mg/kg

Compound `CC(C)N1CCC(c2nnc(-c3nn(C(C)C)c4ccccc34)o2)CC1` has an F [1] of 9%, an AUC [2] of 133 ng·h/mL and a Vdss [3] of 10 L/kg. It also gave a Cmax at 24 h (in vivo [4]) of 91 ng/mL, a half-life at 24 h (in vivo [5]) of 114 min and a Kp at 1 h (in vivo [6]) of 3.6. It also gave a metabolised at 0.5 h (in vitro [7]; liver microsomes) of 35.7% and a metabolised at 0.5 h (in vitro [8]; liver microsomes) of 15.3%.
In the case of `COCCCN1CCC(c2nnc(-c3nn(C(C)C)c4ccccc34)o2)CC1.O=C(O)C(=O)O`, the solubility [9] is reported as 17.1 mg/mL, the solubility [10] is reported as 20 mg/mL and the Papp at 10 µM [11] is reported as 38 ×10⁻⁶ cm/s. For the same compound, the Tmax [12] was 30 min, the AUC(0-t) [13] was 711 ng·h/mL and the half-life [14] was 360 min. For the same compound, the clearance [15] was 18 mL/min/kg, the Vd [16] was 5.1 L/kg and the bioavailability [17] was 72%. The pKa [18] was 8.4, the Vdss [3] was 8 L/kg and the metabolised at 0.5 h (in vitro [7]; liver microsomes) was 25.1%. For the same compound, the metabolised at 0.5 h (in vitro [8]; liver microsomes) was 26.2%.
Work on `CC(C)n1c(=O)c(C(=O)NCCCN2CCCCC2)c(O)c2ccsc21` [PRX-03140] yielded a Vdss [3] of 7.6 L/kg, a bioavailability at 24 h (in vivo [19]) of 2% and a Cmax at 24 h (in vivo [4]) of 17 ng/mL. For the same compound, the AUC at 24 h (in vivo [20]) was 22 ng·h/mL, the half-life at 24 h (in vivo [5]) was 90 min and the clearance at 24 h (in vivo [21]) was 62 mL/min/kg. The Kp at 1 h (in vivo [6]) was 1.6.
For `CC(C)n1nc(-c2nnc(C3CCN(CC4CCC4)CC3)o2)c2ccccc21`, the Vdss [3] was 4.9 L/kg, the bioavailability at 24 h (in vivo [19]) was 2.6% and the Cmax at 24 h (in vivo [4]) was 14 ng/mL. For the same compound, the AUC at 24 h (in vivo [20]) was 16 ng·h/mL, the half-life at 24 h (in vivo [5]) was 138 min and the clearance at 24 h (in vivo [21]) was 81 mL/min/kg. For the same compound, the metabolised at 0.5 h (in vitro [7]; liver microsomes) was 55.1% and the metabolised at 0.5 h (in vitro [8]; liver microsomes) was 62.5%.
For `CC(C)n1nc(-c2nnc(C3CCN(CC4CC4)CC3)o2)c2ccccc21`, the AUC [2] was 394 ng·h/mL, the Vdss [3] was 8 L/kg and the half-life at 24 h (in vivo [5]) was 102 min. It also gave a metabolised at 0.5 h (in vitro [7]; liver microsomes) of 83.8% and a metabolised at 0.5 h (in vitro [8]; liver microsomes) of 43.6%.
Work on `CC(C)n1nc(-c2noc(C3CCN(CC4CCOCC4)CC3)n2)c2ccccc21` yielded a metabolised at 0.5 h (in vitro [7]; microsomes) of 64.1% and a metabolised at 0.5 h (in vitro [8]; microsomes) of 40.4%.
